Laboratory results from patent US7541463B2, “Sulfur-containing naphthalimide derivatives” (East China University of Science and Technology, priority 2003, dated 2009).

Key:
S-180 sarcoma [1] = experiment: In vivo tumor growth inhibition, S-180 sarcoma in mice; conditions: for activity against mice S180 sarcoma (in words): i.p. injection
Protocol: S-180 sarcoma developed for 7-11 days and in good growth trend was homogenated into cell suspension. The cell suspension was inoculated subcutaneously into right armpit of female KM mice (18˜22 g) (about 1.0−2.5×10^6 cells/mouse). After 24 h, the mice were grouped in random with compounds administrated by i.p. injection. From the next day on, the mice were given serial dosages. After treatment, animals were killed, and solid tumors were removed and weighed after the body weight were weighed. The inhibition rate was calculated as follows, and T-test was carried out: [(Average tumor weight of NS group−Average tumor weight of test group)/Average tumor weight of NS group]×100%.

H22 hepatoma = experiment: In vivo tumor inhibition, H22 hepatoma
[2] = Body weight and deaths of S-180 bearing mice; format: in vivo
tumor cell cycle = experiment: Tumor cell cycle arrest (further studies); format: cell-based; conditions: significantly dose-dependent
tumor cell = experiment: Tumor cell apoptosis (further studies); format: cell-based
DNA = DNA double strand break (further studies)
S-180 sarcoma [3] = experiment: In vivo tumor growth inhibition, S-180 sarcoma in mice
[4] = system: human lung adenocarcinoma cell A-549; experiment: Growth inhibition of A-549 cells, SRB protein staining assay; format: cell-based; conditions: read-out: Growth inhibition effect to A-549 cell strain
Protocol: (§1) The cell growth inhibition of mice leukemia cell P388 was evaluated by MTT (microculture tetrozolium) assay, while the cell growth inhibition of human lung adenocarcinoma cell A-549 was evaluated by SRB (Sulforhodamine B) protein staining assay.
The procedure of SRB assay was as follows: appropriate amount of cells in log phase were seeded in 96-well plates according to the growing rate (90 ul/well). After cultured for 24 h, cells were exposed to serial dilutions of drugs in triplicate (10 ul/well). In addition, control wells of normal saline in corresponding concentrations and zeroing wells without cell were set. The cells were incubated in 5% CO2 humidified incubator at 37° C. After 72 h, the medium was removed and cells were fixed with cold 10% trichloric acid (TCA) at 4° C. for 1 h. The plates were washed with distilled water 5 times, and stained in room temperature with 4 mg/ml SRB (Sigma, diluted with 1% glacial acetic acid, 100 ul/well) for 15 minutes after air drying. SRB was then washed with 1% acetic acid 5 times. Plates were dried, followed by adding 150 ul/well Tris solution. Absorbance was measured at […] using a multiwell spectrophotometer. The inhibition effect of the compounds in test (percentage of growth inhibition) was calculated for each well: % inhibition=(A540control cells−A540treated cells)/A540control cells×100%.
(§2) The cell lines used were mice leukemia cell P388, human leukemia cell MOLT-4, human lung adenocarcinoma cell A-549, human gastric adenocarcinoma SGC-7901, human hepatocellular carcinoma BEL-7402 and human embryonal fibroblast WI-38 (commerially available from ATCC).
(§3) The exposure time to compounds was 48 h-72 h.

mice leukemia cell P388 = experiment: Growth inhibition of P388 cells, MTT assay; format: cell-based; conditions: Mus musculus, read-out: Growth inhibition effect to P388 cell strain
Protocol: as §1
The procedure of MTT assay was as follows: appropriate amount of cells in log phase were seeded in 96-well plates (6000 cells/well, 15000 cells/well, 90ul/well) according to the growing rate. After cultured for 24 h, cells were exposed to serial dilutions of drugs in triplicate (10 ul/well). In addition, wells without cell, and wells without cell but with serial dilutions of drugs in case of using a colored-drug were set for zeroing. Then, the cells were cultured in 5% CO2 humidified incubator at 37° C. for 48 h. After treatment of drugs for 48 h, 20ul MTT (Sigma) which was diluted by normal saline to the concentration of 5 mg/ml was added to each well, 50ul/well 10%SDS-5% isobutanol-0.01% mol/LHCl was added after 4 h. After cultured overnight, absorbance was measured at 570 nm using a multiwell spectrophotometer. The inhibition effect of the compounds in test (percentage of growth inhibition) was calculated for each well: % inhibition=(OD570control cells−OD570treated cells)/OD570control cells×100%.
as §2, §3

CN(C)CCN1C(=O)c2cccc3cc(N)cc(c23)C1=O [Amonafide, N-(β-dimethylaminoethyl)-3-amino-1,8-naphthalimide, reference compound]
Weight of tumor (g) mean ± SD (S-180 sarcoma [1]; S-180 sarcoma, 5 mg/kg i.p): 1.12 ± 0.35 g
activity against mice S180 sarcoma (in words) (S-180 sarcoma [1]): not potent
activity in parallel experiments (in words) (H22 hepatoma; compared with C16): not as active
Weight of mice (g) Day 7 ([2]; 5 mg/kg i.p): 32.0 g
Weight of mice (g) Day 7 ([2]; 10 mg/kg i.p): 31.3 g
tumor cell cycle arrest (tumor cell cycle): arrest tumor cell cycle in G2/M phase
tumor cell apoptosis (tumor cell): trigger tumor cell apoptosis
DNA double strand break (DNA): induce the broken of DNA double strand
Tumor growth inhibition % (S-180 sarcoma [3]; 5 mg/kg i.p): 30.9%
Tumor growth inhibition % (S-180 sarcoma [3]; 10 mg/kg i.p): 15.4%
Weight of tumor (g) mean ± SD (S-180 sarcoma [3]; 10 mg/kg i.p): 1.37 ± 0.26 g

CN(C)CCN1C(=O)c2cccc3c2c(cc2c4ccccc4sc32)C1=O [compound 16, N-(N′,N′-dimethylaminoethyl)benzo[b]thieno[2,1-c]naphthalimide]
inhibition at 100 µM ([4]; A549, 10^−4 M): 97.1%
inhibition at 10 µM ([4]; A549, 10^−5 M): 96.6%
inhibition at 1 µM ([4]; A549, 10^−6 M): 85.2%
inhibition at 0.1 µM ([4]; A549, 10^−7 M): 72.2%
inhibition at 0.01 µM ([4]; A549, 10^−8 M): 55.3%
inhibition at 100 µM (mice leukemia cell P388; 10^−4 M): 100%
inhibition at 10 µM (mice leukemia cell P388; 10^−5 M): 95.9%
inhibition at 1 µM (mice leukemia cell P388; 10^−6 M): 68.2%
inhibition at 0.1 µM (mice leukemia cell P388; 10^−7 M): 21.4%
inhibition at 0.01 µM (mice leukemia cell P388; 10^−8 M): 13.8%
Weight of tumor (g) mean ± SD (S-180 sarcoma [1]; S-180 sarcoma, 12.5 mg/kg i.p): 1.14 ± 0.29 g
Tumor growth inhibition % (S-180 sarcoma [1]; S-180 sarcoma, 25 mg/kg i.p): 71.6%
Weight of tumor (g) mean ± SD (S-180 sarcoma [1]; S-180 sarcoma, 25 mg/kg i.p): 0.46 ± 0.24 g
activity against mice S180 sarcoma (in words) (S-180 sarcoma [1]): active
tumor inhibition (in words) (H22 hepatoma; 7.5 mg/kg): not active
tumor inhibition rate (H22 hepatoma; i.p. 15 mg/kg): 51.0%
tumor inhibition rate (H22 hepatoma; i.p. 30 mg/kg): 72.6%
Weight of mice (g) Day 7 ([2]; 12.5 mg/kg i.p): 26.9 g
Weight of mice (g) Day 7 ([2]; 25 mg/kg i.p): 18.6 g
Weight of mice (g) Day 7 ([2]; 50 mg/kg i.p): 12.9 g
tumor cell cycle arrest (tumor cell cycle): arrest tumor cell cycle in G2/M phase
tumor cell apoptosis (tumor cell): trigger tumor cell apoptosis
DNA double strand break (DNA): induce the broken of DNA double strand
Tumor growth inhibition % (S-180 sarcoma [3]; 12.5 mg/kg i.p): 29.6%
Tumor growth inhibition % (S-180 sarcoma [3]; 50 mg/kg i.p): 95.6%
Weight of tumor (g) mean ± SD (S-180 sarcoma [3]; 50 mg/kg i.p): 0.08 ± 0.04 g
